Assay results as given in US20230183705A1, “PRODUCTS FOR SUPPRESSING OR REDUCING THE EXPRESSION OR ACTIVITY OF A SNORNA AND USES THEREOF IN THE TREATMENT OF CANCER” (NINOVAX, priority 2020, published 2023).

Assays:
Type in all cases: cell-based, human
A549 cells (lung cancer) = test: Cell proliferation (cell counting) after siRNA knock-down of snoRNA-jouvence; settings: siRNA 10 nM, three transfections at day 0, 2, 4, cells counted at day 7
Method: (§1) The siRNA treatment consists of three reverse transfections applied at day 0, day 2, day 4, followed by the determination of the number of cells at day 7 for A-B-C-D. For E, a single treatment has been done at day 0, and the number of cells was counted two days later. siRNA was used at a concentration of 10 nM. Five different human cancer cell lines were used. A) HCT116 cells (colon cancer), B) MCF7 cells (breast cancer), C) U87 cells (glioblastoma), D) A549 cells (lung cancer), and E) K562 cells (leukemia). In siRNA-treated cells, inventors observed a strong reduction of the number of cells, by about 50% or more, except in E in which the reduction was about 10% probably due to the fact that only a single treatment has been performed. […] In si-RNA treated cells, inventors observed a 40% reduction of snoRNA-jouvence expression.
(§2) All human cancer cell lines were provided from ATCC. HCT116 were cultured in McCoy’s 5A medium (Gibco, Invitrogen, USA), supplemented with 10% Fetal Bovine Serum (FBS) (Biowest, France). MCF7, A549, and K562 cells were cultured in RPMI 1640 + Glutamax medium (Gibco, Invitrogen, USA), supplemented with 10% Fetal Bovine Serum (FBS) (Biowest, France). U87 cells were cultured in Dulbecco’s modified Eagle’s medium (DMEM) (Gibco), supplemented with 10% FBS. Cells were incubated at 37° C. in a humidified atmosphere containing 5% CO2. The medium was changed every two days, and cells were transferred using 0.05% trypsin/EDTA (Gibco Invitrogen).
(§3) The effect of the knock-down of the snoRNA-jouvence in HCT116 cells was assessed by the transfection of short interfering RNA (siRNA). First, the cells were seeded in 12-well plates (in triplicates), with the following number of cells per well: HCT116 and MCF7: 3.0×10^4, K562: 2.5 x10^4, A549: 2.0x10^4, and U87: 6.0x10^4. […] Cell suspensions were directly transfected with the corresponding siRNA (reverse transfection) at a final concentration of 10 nM per well, using the Lipofectamine RNAiMAX transfection reagent (ThermoFisher Scientific, USA). Forty-eight hours after the first siRNA reverse transfection, a forward transfection was performed on the adherent cells (at the same concentration as the first reverse transfection). Again, forty-eight hours after the siRNA forward transfection, a second forward transfection was performed on the adherent cells (at the same concentration). Then, after 72 h (meaning at J7 from the starting point), the medium was changed and cells were counted and compared to the different controls. For the RNA extraction and RNA-seq analysis performed in HCT116 cells, cell pellets were made under the same conditions (at J7). Experiments were performed in triplicates and the specific knock-down of the snoRNA-jouvence was validated by standard RT-qPCR (TaqMan).
(§4) Study was performed in five different human cancer cell lines, HCT116 cells (colon cancer), MCF7 cells (breast cancer), U87 cells (glioblastoma), A549 cells (lung cancer), and K562 cells (leukemia). The proliferation rate of siRNA-treated cells (snoRNA jouvence knock-down) compared to non-treated Control cells was analysed by cell counting at J7. Briefly, the supernatant was harvested and cells washed with PBS 1X. Then, cells were trypsinized with 300 µl of 0.05% trypsin/EDTA (Gibco) per well. Trypsine was inactivated with 700 µL of the corresponding medium per well, and then counted with the VicellXR (Cell viability Analyzer, Beckman Coulter).

[1] = tested on: HCT116 cells (colon cancer); test: as above; settings: siRNA 10 nM, three transfections at day 0, 2, 4, cells counted at day 7
Method: as §1, §2, §3, §4

K562 cells (leukemia) = test: as above; settings: siRNA 10 nM, single treatment at day 0, cells counted two days later
Method: as §1, §2, §3, §4

[2] = tested on: MCF7 cells (breast cancer); test: as above; settings: siRNA 10 nM, three transfections at day 0, 2, 4, cells counted at day 7
Method: as §1, §2, §3, §4

U87 cells (glioblastoma) = test: as above; settings: siRNA 10 nM, three transfections at day 0, 2, 4, cells counted at day 7
Method: as §1, §2, §3, §4

snoRNA-jouvence = test: Expression of the snoRNA-jouvence by RT-qPCR (Taqman) in siRNA-treated HCT116 cells; settings: siRNA-treated HCT116 cells compared to non-treated control HCT116 cells, siRNA 10 nM
Method: as §1
The effect of the knock-down of the snoRNA-jouvence in HCT116 cells was assessed by the transfection of short interfering RNA (siRNA). First, the cells were seeded in 12-well plates (in triplicates), with the following number of cells per well: HCT116 and MCF7: 3.0×10^4, K562: 2.5 x10^4, A549: 2.0x10^4, and U87: 6.0x10^4. […] Then, after 72 h (meaning at J7 from the starting point), the medium was changed and cells were counted and compared to the different controls. […]

Ribosomes pathways = test: Transcriptomic analysis (RNA-seq) with KEGG analysis in HCT116 cells; settings: HCT116, siRNA treated versus non-treated cells
Method: Briefly, 99 genes over 138 genes of this pathway are deregulated.
as §3, with “(TaqMan). […]” for “(TaqMan).”
In brief, technically, RNA concentration was measured using Qubit® RNA Assay Kit in Qubit® 2.0 Flurometer (Life Technologies, CA, USA). RNA integrity was assessed using the RNA Nano 6000 Assay Kit of the Bioanalyzer 2100 system (Agilent Technologies, CA, USA). […] At last, PCR products were purified (AMPure XP system) and library quality was assessed on the Agilent Bioanalyzer 2100 system. […] After cluster generation, the library preparations were sequenced on an Illumina Hiseq platform and 125 bp/150 bp paired-end reads were generated. […]

siRNA: silencer selected siRNA (Lock-Nucleotide-Acid siRNA) comprising SEQ ID NO: 3 as sense and SEQ ID NO: 4 as antisense sequence, against snoRNA-jouvence (sense GGCUAUUGUGGACAGAGGA; antisense UCCUCUGUCCACAAUAGCC; Silencer Select LNA-modified siRNA, pattern not given here)
reduction of the number of cells (A549 cells (lung cancer)): ≥ 50% | reduction of the number of cells [1]: ≥ 50% | reduction of the number of cells (K562 cells (leukemia)): about 10% | reduction of the number of cells [2]: ≥ 50% | reduction of the number of cells (U87 cells (glioblastoma)): ≥ 50% | reduction of snoRNA-jouvence expression (snoRNA-jouvence): 40% | deregulated genes of the Ribosomes pathways (over 138 genes) (Ribosomes pathways): 99 genes | downregulated genes of the Ribosomes pathways (Ribosomes pathways): 92 genes | upregulated genes of the Ribosomes pathways (Ribosomes pathways): 7 genes
